Results reported in patent publication US20250177566A1, “USE OF CHEMICAL EPIGENETIC MODIFIERS TO MODULATE GENE EXPRESSION” (The University of North Carolina at Chapel Hill, priority 2022, published 2025).

Assays:
[1] = system: TRE3G-GFP reporter gene; experiment: TRE3G-GFP reporter gene activation in HCT116, dCas9 + MS2-FKBP*x2 (F36V) system, flow cytometry; assay type: cell-based, human; design: fold change, GFP: reference not given here; details: for fold change, GFP: FIG. 5A; for fold change, GFP / fold change, GFP (TRE3G gRNA vs NT gRNA): 10 nM; for fold change, GFP (TRE3G gRNA vs NT gRNA): FIG. 1C, 48 hours; for % repress, GFP (no AP1867 vs AP1867 added): FIG. 1D
[2] = system: CXCR4; experiment: CXCR4 mRNA activation in HCT116 stably expressing dCas9 and MS2-FKBP*x2, qRT-PCR; assay type: cell-based, human; details: FIG. 2C; 5 nM; 48 hrs
Experimental: To further explore the activation potential of the SLF*-CEMa, their ability to target endogenous genes was evaluated (FIGS. 2A and 2B). Lentivirus was used to establish a stable HCT116 cell line expressing dCas9 and MS2-FKBP*x2 constructs, selecting for cells with antibiotic resistance. […] All CEMs were screened for their ability to activate the CXCR4 gene at 5 nM (FIG. 2C). RNA extraction and quantitative RT-PCR (qRT-PCR) were performed after 48 hours of CEM treatment.
To determine the optimal treatment concentration of the SLF*-CEMa molecules in this context, HCT116 cells were treated with 1 nM, 5 nM, 25 nM, and 50 nM of CEM203, CEM207, or CEM87. […] After 48 hours, RNA extraction followed by qRT-PCR was performed to evaluate the change in mRNA expression of CXCR4 (FIG. 2D). […] To directly compare this induced activation to other CRISPR-Cas9-based epigenetic activators, dCas9-VPR and dCas9-p300 constructs were virally infected into HCT116 cells and CXCR4 activation assessed in a similar fashion (FIGS. 2A and 2B).
To determine the time at which SLF*-CEMa most effectively induces gene activation, CXCR4 gene expression changes over time were investigated in dCas9 and MS2-FKBP*x2 stably infected HCT116 cells. Cells were treated with either vehicle, […] (FIG. 3A). RNA extraction and qRT-PCR were performed at 12, 24, 48, 72, and 96 hrs time points (FIG. 3B).
To investigate if endogenous gene activation triggered by the SLF*-CEMa compounds is also reversible, HCT116 cells were treated with CEM203 (50 nM) or CEM207 (25 nM) for 24 hours after transfecting CXCR4 gRNA, and then the CEMs were removed by media exchange at various time points. […] Likewise, it was investigated whether treatment with excess AP1867 could further reverse gene activation, potentially in a more robust fashion than with washout alone if there is any remaining intracellular SLF*-CEMa. To test this, after 24 hours of SLF*-CEMa treatment, a media exchange containing 20 μM AP1867 was performed (FIGS. 3C and 3D).
RNA extraction and qRT-PCR. All RNA extraction experiments were conducted in 12-well plate format. Culturing medium was removed, and cells were washed with 1×PBS, following with 0.05% trypsin to disassociate. After being quenched by medium and centrifuged, cells were washed with 1×PBS, and the RNA extraction was performed by using RNeasy Plus Mini kit (Qiagen, 74134). RT-qPCR was conducted by using RNA-to CT 1-step kit (Thermo Fisher Scientific, 4389986). The primer sets used in quantifying each gene can be found in Table 4.

Compound | fold change, GFP ([1]; NT gRNA, 48 hrs) | fold change, GFP ([1]; TRE3G gRNA, 48 hrs) | fold change, CXCR4 mRNA (Treated vs Non-Treated) [2] | fold change, GFP (TRE3G gRNA vs NT gRNA) [1] | % repress, GFP (no AP1867 vs AP1867 added) ([1]; TRE3G gRNA, CEM207 5 nM + AP1867 5 μM) | % repress, GFP (no AP1867 vs AP1867 added) ([1]; TRE3G gRNA, CEM207 5 nM + AP1867 10 μM) | % repress, GFP (no AP1867 vs AP1867 added) ([1]; TRE3G gRNA, CEM207 5 nM + AP1867 20 μM) | fold change, GFP (no AP1867 vs AP1867 added) ([1]; FIG. 5B, TRE3G gRNA, CEM207 5 nM + AP1867 500 nM, 48 hrs)
CC[C@H](C(=O)N1CCCC[C@H]1C(=O)O[C@H](CCc1ccc(OC)c(OC)c1)c1cccc(OCC(=O)NCCOCCOCCOCCOCCOCCOCCNC(=O)C[C@@H]2N=C(c3ccc(Cl)cc3)c3c(sc(C)c3C)-n3c(C)nnc32)c1)c1cc(OC)c(OC)c(OC)c1 [CEM211, (R)-1-(3-((26-((S)-4-(4-Chlorophenyl)-2,3,9-trimethyl-6H-thieno[3,2-f][1,2,4]triazolo[4,3-a][1,4]diazepin-6-yl)-2,25-dioxo-6,9,12,15,18,21-hexaoxa-3,24-diazahexacosyl)oxy)phenyl)-3-(3,4-dimethoxyphenyl) propyl(S)-1-((S)-2-(3,4,5-trimethoxyphenyl)butanoyl) piperidine-2-carboxylate] | 0.4 fold | 7.8 fold | 8.5 fold | – | – | – | – | –
CC[C@H](C(=O)N1CCCC[C@H]1C(=O)O[C@H](CCc1ccc(OC)c(OC)c1)c1cccc(OCC(=O)O)c1)c1cc(OC)c(OC)c(OC)c1 [AP1867, reference compound] | – | – | – | 1.4 fold | 45% | 84% | 91% | No change in GFP expression
CC[C@H](C(=O)N1CCCC[C@H]1C(=O)O[C@H](CCc1ccc(OC)c(OC)c1)c1cccc(OCC(=O)NCCOCCOCCOCCOCCOCCOCCOCCNC(=O)C[C@@H]2N=C(c3ccc(Cl)cc3)c3cc(OC)ccc3-n3c(C)nnc32)c1)c1cc(OC)c(OC)c(OC)c1 [CEM206, (1R)-1-(3-((29-((4S)-6-(4-Chlorophenyl)-8-methoxy-1-methyl-4H-benzo[f][1,2,4]triazolo[4,3-a][1,4]diazepin-4-yl)-2,28-dioxo-6,9,12,15,18,21,24-heptaoxa-3,27-diazanonacosyl)oxy)phenyl)-3-(3,4-dimethoxyphenyl) propyl (2S)-1-((S)-2-(3,4,5-trimethoxyphenyl)butanoyl) piperidine-2-carboxylate] | 0.3 fold | 8.5 fold | 13.9 fold | – | – | – | – | –
CC[C@H](C(=O)N1CCCC[C@H]1C(=O)O[C@H](CCc1ccc(OC)c(OC)c1)c1cccc(OCC(=O)NCCOCCOCCOCCOCCOCCNC(=O)C[C@@H]2N=C(c3ccc(Cl)cc3)c3c(sc(C)c3C)-n3c(C)nnc32)c1)c1cc(OC)c(OC)c(OC)c1 [CEM210, (R)-1-(3-((23-((S)-4-(4-Chlorophenyl)-2,3,9-trimethyl-6H-thieno[3,2-f][1,2,4]triazolo[4,3-a][1,4]diazepin-6-yl)-2,22-dioxo-6,9,12,15,18-pentaoxa-3,21-diazatricosyl)oxy)phenyl)-3-(3,4-dimethoxyphenyl) propyl(S)-1-((S)-2-(3,4,5-trimethoxyphenyl)butanoyl) piperidine-2-carboxylate] | 0.4 fold | 8.5 fold | 12.0 fold | – | – | – | – | –
CC[C@H](C(=O)N1CCCC[C@H]1C(=O)O[C@H](CCc1ccc(OC)c(OC)c1)c1cccc(OCC(=O)NCCOCCOCCOCCOCCOCCOCCOCCNC(=O)C[C@@H]2N=C(c3ccc(Cl)cc3)c3c(sc(C)c3C)-n3c(C)nnc32)c1)c1cc(OC)c(OC)c(OC)c1 [CEM212, (R)-1-(3-((29-((S)-4-(4-Chlorophenyl)-2,3,9-trimethyl-6H-thieno[3,2-f][1,2,4]triazolo[4,3-a][1,4]diazepin-6-yl)-2,28-dioxo-6,9,12,15,18,21,24-heptaoxa-3,27-diazanonacosyl)oxy)phenyl)-3-(3,4-dimethoxyphenyl) propyl(S)-1-((S)-2-(3,4,5-trimethoxyphenyl)butanoyl) piperidine-2-carboxylate] | 0.4 fold | 6.1 fold | 12.6 fold | – | – | – | – | –
CCNC(=O)C[C@@H]1N=C(c2ccc(Cl)cc2)c2cc(OC)ccc2-n2c(C)nnc21 [iBET762, reference compound] | – | – | – | 2.4 fold | – | – | – | –
CC[C@H](C(=O)N1CCCC[C@H]1C(=O)O[C@H](CCc1ccc(OC)c(OC)c1)c1cccc(OCC(=O)NCCOCCOCCOCCOCCOCCOCCNC(=O)C[C@@H]2N=C(c3ccc(Cl)cc3)c3cc(OC)ccc3-n3c(C)nnc32)c1)c1cc(OC)c(OC)c(OC)c1 [CEM205, (1R)-1-(3-((26-((4S)-6-(4-Chlorophenyl)-8-methoxy-1-methyl-4H-benzo[f][1,2,4]triazolo[4,3-a][1,4]diazepin-4-yl)-2,25-dioxo-6,9,12,15,18,21-hexaoxa-3,24-diazahexacosyl)oxy)phenyl)-3-(3,4-dimethoxyphenyl) propyl (2S)-1-((S)-2-(3,4,5-trimethoxyphenyl)butanoyl) piperidine-2-carboxylate] | 0.4 fold | 6.9 fold | 8.8 fold | – | – | – | – | –
CC[C@H](C(=O)N1CCCC[C@H]1C(=O)O[C@H](CCc1ccc(OC)c(OC)c1)c1cccc(OCC(=O)NCCOCCOCCOCCOCCNC(=O)C[C@@H]2N=C(c3ccc(Cl)cc3)c3c(sc(C)c3C)-n3c(C)nnc32)c1)c1cc(OC)c(OC)c(OC)c1 [CEM209, (R)-1-(3-((20-((S)-4-(4-Chlorophenyl)-2,3,9-trimethyl-6H-thieno[3,2-f][1,2,4]triazolo[4,3-a][1,4]diazepin-6-yl)-2,19-dioxo-6,9,12,15-tetraoxa-3,18-diazaicosyl)oxy)phenyl)-3-(3,4-dimethoxyphenyl) propyl(S)-1-((S)-2-(3,4,5-trimethoxyphenyl)butanoyl) piperidine-2-carboxylate] | 0.5 fold | 4.3 fold | 11.1 fold | – | – | – | – | –
CC[C@H](C(=O)N1CCCC[C@H]1C(=O)O[C@H](CCc1ccc(OC)c(OC)c1)c1cccc(OCC(=O)NCCOCCOCCOCCNC(=O)C[C@@H]2N=C(c3ccc(Cl)cc3)c3c(sc(C)c3C)-n3c(C)nnc32)c1)c1cc(OC)c(OC)c(OC)c1 [CEM208, (R)-1-(3-((17-((S)-4-(4-Chlorophenyl)-2,3,9-trimethyl-6H-thieno[3,2-f][1,2,4]triazolo[4,3-a][1,4]diazepin-6-yl)-2,16-dioxo-6,9,12-trioxa-3,15-diazaheptadecyl)oxy)phenyl)-3-(3,4-dimethoxyphenyl) propyl(S)-1-((S)-2-(3,4,5-trimethoxyphenyl)butanoyl) piperidine-2-carboxylate] | 0.4 fold | 8.1 fold | 11.5 fold | – | – | – | – | –
CC[C@H](C(=O)N1CCCC[C@H]1C(=O)O[C@H](CCc1ccc(OC)c(OC)c1)c1cccc(OCC(=O)NCCOCCOCCOCCOCCOCCNC(=O)C[C@@H]2N=C(c3ccc(Cl)cc3)c3cc(OC)ccc3-n3c(C)nnc32)c1)c1cc(OC)c(OC)c(OC)c1 [CEM204, (1R)-1-(3-((23-((4S)-6-(4-Chlorophenyl)-8-methoxy-1-methyl-4H-benzo[f][1,2,4]triazolo[4,3-a][1,4]diazepin-4-yl)-2,22-dioxo-6,9,12,15,18-pentaoxa-3,21-diazatricosyl)oxy)phenyl)-3-(3,4-dimethoxyphenyl) propyl (2S)-1-((S)-2-(3,4,5-trimethoxyphenyl)butanoyl) piperidine-2-carboxylate] | 0.3 fold | 5.7 fold | 7.2 fold | – | – | – | – | –
CC[C@H](C(=O)N1CCCC[C@H]1C(=O)O[C@H](CCc1ccc(OC)c(OC)c1)c1cccc(OCC(=O)NCCOCCOCCNC(=O)C[C@@H]2N=C(c3ccc(Cl)cc3)c3cc(OC)ccc3-n3c(C)nnc32)c1)c1cc(OC)c(OC)c(OC)c1 [CEM201, (1R)-1-(3-((14-((4S)-6-(4-Chlorophenyl)-8-methoxy-1-methyl-4H-benzo[f][1,2,4]triazolo[4,3-a][1,4]diazepin-4-yl)-2,13-dioxo-6,9-dioxa-3,12-diazatetradecyl)oxy)phenyl)-3-(3,4-dimethoxyphenyl) propyl (2S)-1-((S)-2-(3,4,5-trimethoxyphenyl)butanoyl) piperidine-2-carboxylate] | 0.6 fold | 8.2 fold | 5.8 fold | – | – | – | – | –
